According to ChEMBL document CHEMBL3885881, “DrugMatrix”:

Organism: Rattus norvegicus
Test: DrugMatrix - Regimen: Daily Repeat
Format: toxicity, organism-based, Sprague-Dawley
Set-up: regimen Daily Repeat, gender Male, age 6-8 weeks
Conditions: in vivo, po, route oral GAVAGE, vehicle 100 % WATER; for ABSOLUTE BASOPHIL / ABSOLUTE EOSINOPHIL / ABSOLUTE LYMPHOCYTE / ABSOLUTE MONOCYTE / ABSOLUTE SEGMENTED NEUTROPHIL / BASOPHIL / EOSINOPHIL / ERYTHROCYTE COUNT / HEMATOCRIT / HEMOGLOBIN / LEUKOCYTE COUNT / LYMPHOCYTE / MEAN CORPUSCULAR HEMOGLOBIN / MEAN CORPUSCULAR HEMOGLOBIN CONCENTRATION / MEAN CORPUSCULAR VOLUME / MONOCYTE / NEUTROPHIL / NUCLEATED RED BLOOD CELLS / PLATELET COUNT: tissue Blood; for ALANINE AMINOTRANSFERASE / ALBUMIN / ALKALINE PHOSPHATASE / ASPARTATE AMINOTRANSFERASE / BLOOD UREA NITROGEN / CARBON DIOXIDE / CHLORIDE / CHOLESTEROL / CREATINE PHOSPHOKINASE / CREATININE / GLUCOSE / LACTATE DEHYDROGENASE / LIPASE / PHOSPHORUS / POTASSIUM / SODIUM / TOTAL BILIRUBIN / TOTAL PROTEIN / URIC ACID: tissue Plasma
[1] = 0 mg/kg, 72 h, dose level Control, time 3 day
[2] = 0 mg/kg, 120 h, dose level Control, time 5 day
[3] = 100 mg/kg, 72 h, dose level Low, time 3 day

## CC(C)(S)[C@@H](N)C(=O)O [PENICILLAMINE]
[1]
  ABSOLUTE BASOPHIL: 0 CELLS/uL
  ABSOLUTE EOSINOPHIL: 0 CELLS/uL
  ABSOLUTE LYMPHOCYTE: 7802.17 CELLS/uL
  ABSOLUTE MONOCYTE: 13.5 CELLS/uL
  ABSOLUTE SEGMENTED NEUTROPHIL: 617.67 CELLS/uL
  BASOPHIL: 0%
  EOSINOPHIL: 0%
  ERYTHROCYTE COUNT: 5.35 x10E6/uL
  HEMATOCRIT: 33.02%
  HEMOGLOBIN: 12.88 G/DL
  LEUKOCYTE COUNT: 8.43 x10E3/uL
  LYMPHOCYTE: 92.67%
  MEAN CORPUSCULAR HEMOGLOBIN: 24.12 pg
  MEAN CORPUSCULAR HEMOGLOBIN CONCENTRATION: 39.03 G/DL
  MEAN CORPUSCULAR VOLUME: 61.8 fL
  MONOCYTE: 0.17%
  NEUTROPHIL: 7.17%
  NUCLEATED RED BLOOD CELLS: 0 /100WBC
  PLATELET COUNT: 1124.83 x10E3/uL
  ALANINE AMINOTRANSFERASE: 54.17 u/L
  ALBUMIN: 4.07 G/DL
  ALKALINE PHOSPHATASE: 383.83 u/L
  ASPARTATE AMINOTRANSFERASE: 82.17 u/L
  BLOOD UREA NITROGEN: 13.67 mg/dL
  CARBON DIOXIDE: 31 mmol/L
  CHLORIDE: 100.83 MEQ/L
  CHOLESTEROL: 65.17 mg/dL
  CREATINE PHOSPHOKINASE: 228.33 u/L
  CREATININE: 0.12 mg/dL
  GLUCOSE: 148 mg/dL
  LACTATE DEHYDROGENASE: 97.83 u/L
  LIPASE: 9.17 u/L
  PHOSPHORUS: 9.75 mg/dL
  POTASSIUM: 5.85 MEQ/L
  SODIUM: 147.02 MEQ/L
  TOTAL BILIRUBIN: 0.18 mg/dL
  TOTAL PROTEIN: 6.1 G/DL
  URIC ACID: 0.5 mg/dL
[2]
  ABSOLUTE BASOPHIL: 0 CELLS/uL
  ABSOLUTE EOSINOPHIL: 0 CELLS/uL
  ABSOLUTE LYMPHOCYTE: 10538 CELLS/uL
  ABSOLUTE MONOCYTE: 15.83 CELLS/uL
  ABSOLUTE SEGMENTED NEUTROPHIL: 762.83 CELLS/uL
  BASOPHIL: 0%
  EOSINOPHIL: 0%
  ERYTHROCYTE COUNT: 5.49 x10E6/uL
  HEMATOCRIT: 34.63%
  HEMOGLOBIN: 13.72 G/DL
  LEUKOCYTE COUNT: 11.32 x10E3/uL
  LYMPHOCYTE: 92.67%
  MEAN CORPUSCULAR HEMOGLOBIN: 24.97 pg
  MEAN CORPUSCULAR HEMOGLOBIN CONCENTRATION: 39.57 G/DL
  MEAN CORPUSCULAR VOLUME: 63.05 fL
  MONOCYTE: 0.17%
  NEUTROPHIL: 7.17%
  NUCLEATED RED BLOOD CELLS: 0.17 /100WBC
  PLATELET COUNT: 802 x10E3/uL
  ALANINE AMINOTRANSFERASE: 50.5 u/L
  ALBUMIN: 4.07 G/DL
  ALKALINE PHOSPHATASE: 336.83 u/L
  ASPARTATE AMINOTRANSFERASE: 81 u/L
  BLOOD UREA NITROGEN: 14.17 mg/dL
  CARBON DIOXIDE: 32 mmol/L
  CHLORIDE: 98.33 MEQ/L
  CHOLESTEROL: 69.17 mg/dL
  CREATINE PHOSPHOKINASE: 253.33 u/L
  CREATININE: 0.13 mg/dL
  GLUCOSE: 153.67 mg/dL
  LACTATE DEHYDROGENASE: 157 u/L
  LIPASE: 9 u/L
  PHOSPHORUS: 10.78 mg/dL
  POTASSIUM: 6.11 MEQ/L
  SODIUM: 144.57 MEQ/L
  TOTAL BILIRUBIN: 0.15 mg/dL
  TOTAL PROTEIN: 6.05 G/DL
  URIC ACID: 0.73 mg/dL
[3]
  ABSOLUTE BASOPHIL: 0 CELLS/uL
  ABSOLUTE EOSINOPHIL: 0 CELLS/uL
  ABSOLUTE LYMPHOCYTE: 8040.67 CELLS/uL
  ABSOLUTE MONOCYTE: 62.33 CELLS/uL
  ABSOLUTE SEGMENTED NEUTROPHIL: 563.67 CELLS/uL
  BASOPHIL: 0%
  EOSINOPHIL: 0%
  ERYTHROCYTE COUNT: 5.32 x10E6/uL
  HEMATOCRIT: 34.33%
  HEMOGLOBIN: 13 G/DL
  LEUKOCYTE COUNT: 8.67 x10E3/uL
  LYMPHOCYTE: 92.67%
  MEAN CORPUSCULAR HEMOGLOBIN: 24.53 pg
  MEAN CORPUSCULAR HEMOGLOBIN CONCENTRATION: 37.9 G/DL
  MEAN CORPUSCULAR VOLUME: 64.67 fL
  MONOCYTE: 0.67%
  NEUTROPHIL: 6.67%
  NUCLEATED RED BLOOD CELLS: 0 /100WBC
  PLATELET COUNT: 991.33 x10E3/uL
  ALANINE AMINOTRANSFERASE: 51 u/L
  ALBUMIN: 4.03 G/DL
  ALKALINE PHOSPHATASE: 403.33 u/L
  ASPARTATE AMINOTRANSFERASE: 82.33 u/L
  BLOOD UREA NITROGEN: 13.67 mg/dL
  CARBON DIOXIDE: 32.33 mmol/L
  CHLORIDE: 100.33 MEQ/L
  CHOLESTEROL: 73.33 mg/dL
  CREATINE PHOSPHOKINASE: 332 u/L
  CREATININE: 0.11 mg/dL
  GLUCOSE: 145.67 mg/dL
  LACTATE DEHYDROGENASE: 165 u/L
  LIPASE: 9 u/L
  PHOSPHORUS: 10 mg/dL
  POTASSIUM: 5.88 MEQ/L
  SODIUM: 145.23 MEQ/L
  TOTAL BILIRUBIN: 0.13 mg/dL
  TOTAL PROTEIN: 5.93 G/DL
  URIC ACID: 0.73 mg/dL
